“Also recorded” adds a separate entry of the source. Peptide text beside a SMILES is read from it. * marks the point of attachment. Cbz = O=C(OCc1ccccc1)*
How the values were obtained:
[1] = system: nSR100; assay: nSR100 protein levels by western blot in dox-inducible, nSR100-expressing 293T cells; assay type: cell-based, human; details: versus DMSO or control siRNAs
From the text: Tubulin detection was used as loading control.
RT-PCR assays were used to confirm FBXW11 knockdown. nSR100 protein levels were monitored using a western blot. Tubulin and 1-actin detection was used to control for loading.
By applying affinity purification coupled to mass-spectrometry (AP-MS), several interaction nSR100 partner proteins were detected that provide insight into mechanisms of post-translational regulation of nSR100 levels. For example, AP-MS experiments identified the F-box protein FBXW11 (also known as 1TRCP2) as an nSR100 interaction partner. The Skp-Cullin-F-box (SCF) complex is a multi-protein complex that regulates cellular protein levels via ubiquitin-mediated proteolysis. FBXW11 is an E3 ubiquitin ligase that confers specificity to the SCF complex by recognizing a particular phosphodegron on targets. In addition, Skp1, which is required for recognizing and binding FBXW11, was also detected in nSR100 AP-MS experiments. Phosphorylation of consensus binding sites for F-box proteins, including FBXW11, is typically required for targeting of proteins for degradation by the proteosomal pathway. The set of nSR100 interaction partners identified by AP-MS included several kinases such as PLK1, GSK3B, CSNK2, CSNK1, CDK1 and SRPK1, as well as other kinases that may control nSR100 levels and or activity.

[2] = molecular target: T1, nSR100 (Mus musculus, UniProt Q8BKA3); assay: Regulation by nSR100: microexon inclusion level (PSI) by RNA-Seq in mouse N2A cells depleted of nSR100 (Table 2); assay type: cell-based
T1 construct: host or cells: mouse N2A cells
T1 sequence (Q8BKA3 1-608): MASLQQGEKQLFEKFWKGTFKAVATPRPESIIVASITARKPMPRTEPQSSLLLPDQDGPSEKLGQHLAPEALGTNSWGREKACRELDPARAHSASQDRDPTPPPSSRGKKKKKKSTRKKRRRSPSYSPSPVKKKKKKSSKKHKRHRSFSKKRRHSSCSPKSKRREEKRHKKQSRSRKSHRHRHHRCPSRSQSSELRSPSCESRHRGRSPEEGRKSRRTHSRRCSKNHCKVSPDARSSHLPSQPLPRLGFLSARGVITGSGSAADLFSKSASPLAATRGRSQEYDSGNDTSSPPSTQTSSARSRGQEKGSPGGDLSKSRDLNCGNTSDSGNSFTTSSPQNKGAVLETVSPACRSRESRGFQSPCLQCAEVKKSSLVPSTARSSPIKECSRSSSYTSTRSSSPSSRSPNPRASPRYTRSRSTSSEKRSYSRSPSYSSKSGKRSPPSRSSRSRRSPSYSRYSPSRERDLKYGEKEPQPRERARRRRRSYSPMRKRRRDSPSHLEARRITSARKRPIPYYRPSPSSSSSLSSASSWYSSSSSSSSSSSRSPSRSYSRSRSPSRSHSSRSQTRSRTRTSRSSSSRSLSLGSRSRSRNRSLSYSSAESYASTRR
From the text: A-H) Percent of neural-regulated exons within each length class that is affected at 15<|ΔPSI|<25 and |ΔPSI|>25 by (A) RBFOX1 knockdown in human neural precursor cells; (B) MBNL1 and MBNL2 double knockdown in human HeLa cells; (C) ESRP1 knockdown in human PNT2 cells; (D) nSR100/Srrm4 knockdown in mouse N2A cells; (E) Ptbp1 knockdown in mouse N2A cells; (F) Ptbp2 knockout in mouse cortex (P1 stage); (G) Ptbp2 knockout in mouse embryonic brain (18.5 days post-conception); and (H) Rbfox1 knockout. p values correspond to two-sided proportion tests of regulated versus non-regulated events. I) Expression of nSR100 in different isolated brain cell types (Zhang et al., 2014). Error bars indicate SEM. […]
(§1) An RNA-Seq analysis pipeline was developed to detect and quantify all AS event classes involving all hypothetically possible splice junctions formed by the usage of annotated and unannotated splice sites, including those that demarcate microexons. […]
(§2) A multi-module analysis pipeline was developed that uses RNA-Seq, expressed sequence tag (EST) and cDNA data, as well as gene annotations and evolutionary conservation, to assemble libraries of exon-exon-junctions (EEJs) for subsequent read alignment to detect and quantify AS events in RNA-Seq data. […] Alt3 or Alt5 events were quantified based on the fraction of reads supporting the usage of each alternative splice site. […]

[3] = system: hippocampal mouse neurons; assay: RNA-Seq analysis of alternative splicing events after KCl depolarization of cultured hippocampal neurons (Table 3); assay type: cell-based; details: for number of alternative splicing events displaying changes: change of at least 15
Protocol: A) Number of alternative splicing events with PSI, percent intron retention (PIR) or percent splice site usage (PSU) changes of at least 15, 30 minutes and 3 hours after neuronal depolarization. B) Microexons and cassette exons are preferentially skipped following neuronal depolarization, whereas retained introns show no directionality. C) Gene ontology analysis of microexons and cassettes exons with ΔPSI≥15 during neuronal depolarization.
A systematic analysis of alternative splicing events modulated by neuronal activity, including microexons, longer cassette exons, retained introns and alternative 5′ and 3′ splice sites was first performed. Cultured wild-type hippocampal mouse neurons were depolarized using KCl treatment for thirty minutes or three hours and RNA-Seq analysis was performed on these samples. […] Among the additional alternative splicing events affected by neuronal depolarization were 887 (of 10830 detected alternative cassette exons>27 nt; 8.1%) alternative cassette exons and 672 retained introns. Longer alternative cassette exons were also primarily skipped in depolarized neurons (747/887; 84.2%) (FIG. 42B). Genes harboring depolarization-dependent alternative cassette exons have functions related to signal transduction and transcription regulation whereas those with microexons relate primarily to vesicle transport (FIG. 42C).

[4] = system: nSR100; assay: nSR100 protein (western blot) and mRNA (qRT-PCR) levels in KCl-depolarized DIV11 cortical neurons; assay type: cell-based, mouse
From the text: A) Overlap between microexons that are skipped in humans with ASD (upper set), skipped upon neuronal depolarization (lower left set) and nSR100-regulated microexons (lower right set). B) Microexons were plotted based on their PSI difference between depolarized and resting wild-type neurons (X-axis), and between nSR100^Δ7-8/Δ7-8 and nSR100^+/+ mice (Y-axis). C) Cumulative distribution plots indicating the position of the first UGC motif within 200 nt upstream of neuronal activity-regulated microexons (dashed curve) or longer cassette exons (thick solid curve) vs. non-neural alternative cassette exons (light solid curve). The number of exons used to analyze each subgroup is shown in parentheses. D) Western blot on KCl-treated DIV11 cortical neurons (left panel) and quantification of nSR100 protein level (right panel). E) RT-PCR showing increased intron retention and microexon inclusion in nSR100 transcripts early after depolarization of DIV11 cortical neurons. […] G) Representative RT-PCRs on nuclear and cytosolic fractions (left panel) to assess localization of nSR100 transcripts in three replicates of cultured DIV4 cortical neurons with qRT-PCR quantification of the abundance of nSR100 isoforms harboring the retained intron, normalized to GAPDH levels in the correspondent cell fractions from six replicates (right panel). […]

[5] = molecular target: T2, nSR100 (Homo sapiens, UniProt A7MD48); assay: Regulation by nSR100: microexon inclusion level (PSI) by RNA-Seq in human 293T cells overexpressing nSR100 (Table 1); assay type: cell-based; details: YES/NO
T2 construct: expressed in transfected cells; host or cells: 293T (human kidney cells), doxycycline-inducible nSR100 expression
T2 sequence (A7MD48 1-611): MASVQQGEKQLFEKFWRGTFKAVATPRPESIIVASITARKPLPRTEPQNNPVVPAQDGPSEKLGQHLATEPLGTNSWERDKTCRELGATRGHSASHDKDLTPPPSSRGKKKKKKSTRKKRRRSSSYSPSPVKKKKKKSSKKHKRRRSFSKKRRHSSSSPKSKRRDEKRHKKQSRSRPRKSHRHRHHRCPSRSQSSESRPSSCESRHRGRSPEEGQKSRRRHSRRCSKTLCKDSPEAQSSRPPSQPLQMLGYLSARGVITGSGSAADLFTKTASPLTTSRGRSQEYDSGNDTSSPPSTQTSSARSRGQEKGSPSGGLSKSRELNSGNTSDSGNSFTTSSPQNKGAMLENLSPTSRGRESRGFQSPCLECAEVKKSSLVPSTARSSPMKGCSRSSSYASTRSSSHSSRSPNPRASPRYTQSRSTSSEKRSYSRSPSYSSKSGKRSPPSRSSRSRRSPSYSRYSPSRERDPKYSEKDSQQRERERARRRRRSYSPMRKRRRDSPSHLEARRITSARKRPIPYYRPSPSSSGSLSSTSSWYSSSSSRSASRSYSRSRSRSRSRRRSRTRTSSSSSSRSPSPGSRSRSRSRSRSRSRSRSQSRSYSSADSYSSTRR
From the text: A) Percent of neural-regulated exons within each length class that is affected by nSR100 expression in human 293T kidney cells (absolute ΔPSI>15, light grey or absolute ΔPSI>25, dark grey). p-values correspond to two-sided proportion tests of affected vs. non-affected events. B) Average normalized density of nSR100 cross-linked sites in 200 nt windows encompassing neural-regulated exons of different length classes. FPB, Fragments Per Billion. […]
as §1
as §2, with “site. Intron retention was analyzed as recently described (Braunschweig et al., 2014).” for “site.”

Molecule: CC(C)C[C@@H](C=O)NC(=O)[C@H](CC(C)C)NC(=O)[C@H](CC(C)C)NC(=O)OCc1ccccc1 [MG132] (Cbz-Leu-Leu-Leu-aldehyde)
- nSR100 protein levels [1]: increased levels of SRRM4; also recorded: significant increases in levels of nSR100

Molecule: Sbf1
- Regulation by nSR100 ([2]; YES/NO): YES

Molecule: [Cl-].[K+] [KCl]
- number of alternative splicing events displaying changes ([3]; 30 minutes after KCl treatment): 222
- microexons with increased skipping, share of all microexons ([3]; 3 hours of KCl treatment): 14.7%
- number of microexons with higher inclusion levels ([3]; 3 hours of KCl treatment): 7
- number of microexons with increased skipping (of 598 detected) ([3]; 3 hours of KCl treatment): 88
- number of alternative splicing events displaying changes ([3]; 3 hours of KCl treatment): 1,829
- decrease in nSR100 protein levels ([4]; 30 minutes into KCl treatment, DIV11 cortical neurons): 2 fold
- nSR100 mRNA levels ([4]; thirty minutes after depolarization, qRT-PCR): remain steady

Molecule: DTNB
- Regulation by nSR100 [5]: YES (minimum threshold (PSI≥10) requirement for annotation as “YES”)

Molecule: Dtnb
- Regulation by nSR100 ([2]; threshold change of PSI≥10): YES

Source: patent publication US10772928B2, “Modulation and detection of a neuronal alternative splicing regulatory network for treatment and diagnosis of neurological disorders” (The Governing Council of the University of Toronto, priority 2014, dated 2020)
